Measurements as given in PubChem BioAssay AID493133 (Sanford-Burnham Center for Chemical Genomics, 2011).
Activity calls are given as the source filed them. How the calls were made is not given here.

Biological target: Alkaline phosphatase, tissue-nonspecific isozyme (Homo sapiens) (UniProt P05186)
Test: TNAP enzyme activity modulation, counter to mouse IAP activators, SAR follow-up, selectivity assay for mouse IAP activator project, biochemical (AID 493133)
Details: purified human TNAP enzyme, phosphatase activity counter-screen

Chain of Alkaline phosphatase, tissue-nonspecific isozyme (Homo sapiens) (P05186 whole entry, looked up): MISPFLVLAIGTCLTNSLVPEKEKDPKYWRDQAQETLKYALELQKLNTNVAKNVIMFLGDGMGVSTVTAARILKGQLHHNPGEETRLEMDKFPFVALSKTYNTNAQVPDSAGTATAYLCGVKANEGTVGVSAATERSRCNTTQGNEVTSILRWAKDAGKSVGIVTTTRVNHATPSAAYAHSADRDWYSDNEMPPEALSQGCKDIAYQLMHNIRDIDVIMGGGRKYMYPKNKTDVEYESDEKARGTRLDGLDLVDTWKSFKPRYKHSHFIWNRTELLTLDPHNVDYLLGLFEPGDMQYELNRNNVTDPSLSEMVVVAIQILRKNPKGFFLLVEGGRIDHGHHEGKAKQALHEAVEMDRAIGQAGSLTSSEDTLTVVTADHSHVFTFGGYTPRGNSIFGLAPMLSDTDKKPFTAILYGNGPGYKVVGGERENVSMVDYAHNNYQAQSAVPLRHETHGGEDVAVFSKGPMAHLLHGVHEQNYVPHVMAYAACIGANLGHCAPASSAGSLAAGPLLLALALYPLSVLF

SMILES | EC50
COc1cc([N+](=O)[O-])ccc1NC(=S)NCCC(c1ccccc1)c1ccccc1 | > 100 µM (inactive)
O=C(N/N=C/C1CC=CCC1)c1cc(O)c(O)c(O)c1 (configuration not stated) | > 100 µM (inactive)
COc1cc(Cl)c(C)cc1NC(=O)CSc1sc2c(O)cc(=O)[nH]c2c1C#N | > 100 µM (inactive)
COC(=O)c1ccc(C)c(NC(=O)CSc2sc3c(O)cc(=O)[nH]c3c2C#N)c1 | > 100 µM (inactive)
COc1ccc(NC(=O)C(CC(C)C)NS(=O)(=O)c2ccc3[nH]c(=O)oc3c2)cc1 (configuration not stated) | > 100 µM (inactive)
CC(C(=O)N(C)C1CCS(=O)(=O)C1)N1C(=O)/C(=C/c2ccco2)SC1=S (configuration not stated) | > 100 µM (inactive)
COc1cccc(/C=N/NC(=O)c2cc(O)c(O)c(O)c2)c1 | > 100 µM (inactive)
Cc1ccc(/C=C2\SC(=S)N(C3CCS(=O)(=O)C3)C2=O)o1 (configuration not stated) | > 100 µM (inactive)
CC(C)N1CCC(=NNC(=O)c2cc(O)c(O)c(O)c2)CC1 | > 100 µM (inactive)
CC(C)C(C(=O)NC1CCS(=O)(=O)C1)N1C(=O)/C(=C\c2ccco2)SC1=S (configuration not stated) | > 100 µM (inactive)
COc1cc(C(=O)NNC(=O)c2n[nH]c3ccccc23)cc(OC)c1OC | 75 µM
COc1ccc(N2CCN(C(=O)CN3C(=O)/C(=C\c4ccco4)SC3=S)CC2)cc1 | > 100 µM (inactive)
O=C(CN1C(=O)/C(=C/c2ccco2)SC1=S)N[C@@H]1CSC[C@@H]1O | > 100 µM (inactive)
O=C(CCN1C(=O)/C(=C\c2ccco2)SC1=S)Nc1ccc(C(=O)O)c(O)c1 | > 100 µM (inactive)
O=C(CN1C(=O)/C(=C/c2ccco2)SC1=S)NCCc1ccc(O)cc1 | > 100 µM (inactive)
S=C(NCCC(c1ccccc1)c1ccccc1)Nc1ccc(Cl)cc1Cl | 56 µM
COc1ccc(CNC(=O)CSc2sc3c(O)cc(=O)[nH]c3c2C#N)cc1 | > 100 µM (inactive)
N#Cc1c(SCC(=O)Nc2cccc(F)c2)sc2c(O)cc(=O)[nH]c12 | > 100 µM (inactive)
CCc1ccc(NC(=O)CN(C)S(=O)(=O)c2ccc3[nH]c(=O)oc3c2)cc1 | > 100 µM (inactive)
Cc1ccc(NC(=O)CCNS(=O)(=O)c2ccc3[nH]c(=O)oc3c2)cc1F | > 100 µM (inactive)
Cc1cc(NC(=O)CSc2sc3c(O)cc(=O)[nH]c3c2C#N)ccc1Br | > 100 µM (inactive)
NS(=O)(=O)c1ccc(-c2ccc(/C=C3\SC(=S)N(C4CCS(=O)(=O)C4)C3=O)o2)cc1 (configuration not stated) | > 100 µM (inactive)
Cc1ccc(Cl)cc1NC(=O)CSc1sc2c(O)cc(=O)[nH]c2c1C#N | > 100 µM (inactive)

SMILES | EC50
CCOc1ccccc1NC(=O)CCNS(=O)(=O)c1ccc2[nH]c(=O)oc2c1 | > 100 µM (inactive)
CCN(CC)C(=O)CSc1sc2c(O)cc(=O)[nH]c2c1C#N | > 100 µM (inactive)
CCOC(=O)N1CCN(S(=O)(=O)c2ccc3[nH]c(=O)oc3c2)CC1 | > 100 µM (inactive)
O=C1/C(=C/c2ccco2)SC(=S)N1C1CCS(=O)(=O)C1 (configuration not stated) | > 100 µM (inactive)
COc1ccc(OC)c(NC(=O)CSc2sc3c(O)cc(=O)[nH]c3c2C#N)c1 | > 100 µM (inactive)
N#Cc1c(SCC(=O)Nc2nccs2)sc2c(O)cc(=O)[nH]c12 | > 100 µM (inactive)
O=C(CCNS(=O)(=O)c1ccc2[nH]c(=O)oc2c1)Nc1cccc(-c2ccno2)c1 | > 100 µM (inactive)
O=C(O)CC(C(=O)O)N1C(=O)/C(=C/c2ccc(-c3nc4ccccc4s3)o2)SC1=S (configuration not stated) | > 100 µM (inactive)
O=C(N/N=C/c1ccco1)c1cc(O)c(O)c(O)c1 | > 100 µM (inactive)
Cc1csc(NC(=O)CSc2sc3c(O)cc(=O)[nH]c3c2C#N)n1 | > 100 µM (inactive)
COc1cc(C(=O)NNC(=O)C2CC2)cc(OC)c1OC | > 100 µM (inactive)
O=C(C1CCN(S(=O)(=O)c2ccc3[nH]c(=O)oc3c2)CC1)N1CC=C(c2ccccc2)CC1 | > 100 µM (inactive)
CC(C(=O)Nc1ccc(C(=O)O)cc1)N1C(=O)/C(=C\c2ccco2)SC1=S (configuration not stated) | > 100 µM (inactive)
O=C(CCNS(=O)(=O)c1ccc2[nH]c(=O)oc2c1)Nc1ccccc1 | > 100 µM (inactive)
CC(C(=O)Nc1cccc(C(=O)O)c1)N1C(=O)/C(=C\c2ccco2)SC1=S (configuration not stated) | > 100 µM (inactive)
CN(C(=O)CN1C(=O)/C(=C\c2ccco2)SC1=S)C1CCS(=O)(=O)C1 (configuration not stated) | > 100 µM (inactive)
O=C(CN1C(=O)/C(=C\c2ccco2)SC1=S)Nc1ccc(C(=O)O)cc1 | > 100 µM (inactive)
CSc1cccc(NC(=O)CCNS(=O)(=O)c2ccc3[nH]c(=O)oc3c2)c1 | > 100 µM (inactive)
O=C(NNC(=O)c1cc(O)c(O)c(O)c1)NC1CCCCC1 | > 100 µM (inactive)
N#Cc1c(SCC(=O)Nc2nc3ccccc3s2)sc2c(O)cc(=O)[nH]c12 | > 100 µM (inactive)
COc1cccc(CNC(=O)CCNS(=O)(=O)c2ccc3[nH]c(=O)oc3c2)c1 | > 100 µM (inactive)
N#Cc1c(SCC(=O)Nc2ccc(Cl)cc2Cl)sc2c(O)cc(=O)[nH]c12 | > 100 µM (inactive)
Cc1cc(=O)oc2cc(NC(=S)NCCC(c3ccccc3)c3ccccc3)ccc12 | > 100 µM (inactive)

SMILES | EC50
O=C(N/N=C/c1ccccc1F)c1cc(O)c(O)c(O)c1 | > 100 µM (inactive)
O=C(CN1C(=O)/C(=C\c2ccco2)SC1=S)Nc1ccccc1C(=O)O | > 100 µM (inactive)
Cc1ccc(/C=N/NC(=O)c2cc(O)c(O)c(O)c2)cc1 | > 100 µM (inactive)
COc1cccc(NC(=O)CN(C)S(=O)(=O)c2ccc3[nH]c(=O)oc3c2)c1 | > 100 µM (inactive)
CCSc1nnc(NC(=O)CSc2sc3c(O)cc(=O)[nH]c3c2C#N)s1 | > 100 µM (inactive)
COc1ccccc1NC(=O)CSc1sc2c(O)cc(=O)[nH]c2c1C#N | > 100 µM (inactive)
Cc1ccc(NC(=O)CSc2sc3c(O)cc(=O)[nH]c3c2C#N)c(F)c1 | > 100 µM (inactive)
N#Cc1c(SCC(=O)Nc2ccc(C(F)(F)F)cc2)sc2c(O)cc(=O)[nH]c12 | > 100 µM (inactive)
CCN(C(=O)CN1C(=O)/C(=C\c2ccco2)SC1=S)C1CCS(=O)(=O)C1 (configuration not stated) | > 100 µM (inactive)
O=C(N/N=C/c1ccsc1)c1cc(O)c(O)c(O)c1 | > 100 µM (inactive)
N#Cc1cccc(NC(=O)CSc2sc3c(O)cc(=O)[nH]c3c2C#N)c1 | > 100 µM (inactive)
O=C(CCCN1C(=O)/C(=C\c2ccco2)SC1=S)Nc1ccc(O)cc1C(=O)O | > 100 µM (inactive)
O=C(N/N=C/C1CC2CCC1C2)c1cc(O)c(O)c(O)c1 (configuration not stated) | > 100 µM (inactive)
COc1ccc(OC)c(NC(=O)CCNS(=O)(=O)c2ccc3[nH]c(=O)oc3c2)c1 | > 100 µM (inactive)
CC(C)c1ccc(NC(=O)CCNS(=O)(=O)c2ccc3[nH]c(=O)oc3c2)cc1 | > 100 µM (inactive)
O=C(CN1C(=O)/C(=C/c2ccco2)SC1=S)Nc1ccc(O)c(C(=O)O)c1 | > 100 µM (inactive)
O=C(CN1C(=O)/C(=C\c2ccco2)SC1=S)Nc1ccc(O)cc1C(=O)O | > 100 µM (inactive)
CC(C)NC(=O)CSc1sc2c(O)cc(=O)[nH]c2c1C#N | > 100 µM (inactive)
O=C(NCCc1ccc(Cl)cc1)C1CCCN(S(=O)(=O)c2ccc3[nH]c(=O)oc3c2)C1 (configuration not stated) | > 100 µM (inactive)
O=C(CN1C(=O)/C(=C/c2ccco2)SC1=S)NC1C=CS(=O)(=O)C1 (configuration not stated) | > 100 µM (inactive)
O=C(CN1C(=O)/C(=C/c2ccco2)SC1=S)Nc1ccc2nccnc2c1 | > 100 µM (inactive)
O=C(c1ccco1)N1CCN(S(=O)(=O)c2ccc3[nH]c(=O)oc3c2)CC1 | > 100 µM (inactive)
N#Cc1c(SCC(=O)NCc2ccc3c(c2)OCO3)sc2c(O)cc(=O)[nH]c12 | > 100 µM (inactive)

SMILES | EC50
N#Cc1c(SCC(=O)Nc2ccccc2C(F)(F)F)sc2c(O)cc(=O)[nH]c12 | > 100 µM (inactive)
CCOC(=O)N1CCC(NC(=O)CSc2sc3c(O)cc(=O)[nH]c3c2C#N)CC1 | > 100 µM (inactive)
COc1cc(C(=O)NNc2nc3cc4c(cc3s2)OCO4)cc(OC)c1OC | 18.4 µM
O=C(CCCN1C(=O)/C(=C/c2ccco2)SC1=S)Nc1ccccc1 | > 100 µM (inactive)
CCOC(=O)NC(=O)CSc1sc2c(O)cc(=O)[nH]c2c1C#N | > 100 µM (inactive)
COc1cc(C(=O)NNC(=S)NC(=O)c2ccccc2C)cc(OC)c1OC | 40.5 µM
FC(F)(F)c1cccc(NC(=S)NCCC(c2ccccc2)c2ccccc2)c1 | 84.5 µM
N#Cc1c(SCC(=O)Nc2nncs2)sc2c(O)cc(=O)[nH]c12 | > 100 µM (inactive)
COc1ccc(CNC(=O)CSc2sc3c(O)cc(=O)[nH]c3c2C#N)cc1OC | > 100 µM (inactive)
CCN(C(=O)C(C)N1C(=O)/C(=C/c2ccco2)SC1=S)C1CCS(=O)(=O)C1 (configuration not stated) | > 100 µM (inactive)
COc1cc(C(=O)NNC(=S)NC(=O)c2ccc(Cl)cc2)cc(OC)c1OC | 29.4 µM
Cc1ccc(NC(=O)CCNS(=O)(=O)c2ccc3[nH]c(=O)oc3c2)c(C)c1 | > 100 µM (inactive)
COc1ccccc1NC(=O)CCNS(=O)(=O)c1ccc2[nH]c(=O)oc2c1 | > 100 µM (inactive)
Cc1ccc(NC(=O)CCNS(=O)(=O)c2ccc3[nH]c(=O)oc3c2)cc1 | > 100 µM (inactive)
O=C(CN1C(=O)/C(=C/c2ccco2)SC1=S)NC1CCS(=O)(=O)C1 (configuration not stated) | > 100 µM (inactive)
C/C(=N\NC(=O)c1cc(O)c(O)c(O)c1)c1ccncc1 | > 100 µM (inactive)
CC(C(=O)NCCc1ccc(O)c(O)c1)N1C(=O)/C(=C\c2ccco2)SC1=S (configuration not stated) | > 100 µM (inactive)
Cc1ccc(C)c(NC(=O)CCNS(=O)(=O)c2ccc3[nH]c(=O)oc3c2)c1 | > 100 µM (inactive)
O=C(N/N=C/c1ccc(F)cc1)c1cc(O)c(O)c(O)c1 | > 100 µM (inactive)
O=C(CN1C(=O)/C(=C/c2ccco2)SC1=S)Nc1ccc(C(=O)O)c(O)c1 | > 100 µM (inactive)
COc1ccc(Cl)cc1NC(=O)CSc1sc2c(O)cc(=O)[nH]c2c1C#N | > 100 µM (inactive)
COC(=O)NNC(=O)c1cc(OC)c(OC)c(OC)c1 | > 100 µM (inactive)
N#Cc1c(SCC(=O)Nc2nc3ccc(Br)cc3s2)sc2c(O)cc(=O)[nH]c12 | > 100 µM (inactive)
